Data from patent US12649750B2, “Macrocyclic compounds, compositions, and methods of using thereof” (Sionna Therapeutics Inc., priority 2022, dated 2026).

What was measured:
[1] = molecular target: T1, CFTR (Homo sapiens, UniProt P13569, DEL508-508); test: TECC24 AUC fold over DMSO @10 μM, CFTR-mediated transepithelial chloride transport in CF-HBE cells; assay type: cell-based; conditions: test agent AUC divided by DMSO vehicle AUC, primary CF-HBE cells, ΔF508 homozygous donor, 48 hours incubation
T1 construct: Primary human bronchial epithelial cells from a ΔF508 homozygous CF donor; host or cells: primary human bronchial epithelial cells (CF-HBE), ΔF508 homozygous donor
In short: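 Primary ΔF508-homozygous CF bronchial epithelial cells on inserts were incubated 48 h at 36.5 °C with compound in IL-13-containing medium. VT and TEER were then recorded in current-clamp mode (pH 7.4 HEPES bath) with benzamil 10 μM, forskolin 10 μM, then CFTR inhibitor-172 20 μM. The IEQ AUC between forskolin and inhibitor was divided by vehicle AUC.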

[2] = molecular target: T2, NBD1 (Homo sapiens, UniProt P13569); test: Aggregation analysis using differential static light scattering (DSLS), thermal stability of NBD1 (ΔTagg); assay type: binding; conditions: ΔTagg versus DMSO control, NBD1 0.2 mg/ml
T2 construct: Purified recombinant NBD1 was produced using previously described methods; made in house
In short: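 Thermal aggregation of purified NBD1 was followed by static light scattering during a 1° C./min ramp to 70° C. Protein was at 0.2 mg/ml with 2 mM ATP at pH7.6. Each compound's Tagg was referenced to DMSO controls.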

T2 sequence (P13569 423-646 limits assumed): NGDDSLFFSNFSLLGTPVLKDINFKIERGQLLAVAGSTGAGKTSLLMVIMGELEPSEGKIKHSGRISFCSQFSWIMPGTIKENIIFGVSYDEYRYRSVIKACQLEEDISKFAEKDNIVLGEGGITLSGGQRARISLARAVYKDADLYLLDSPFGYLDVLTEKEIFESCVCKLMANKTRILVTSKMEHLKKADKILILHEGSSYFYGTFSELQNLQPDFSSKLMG
T1 sequence (P13569 with tags, fused parts or gaps DEL508-508): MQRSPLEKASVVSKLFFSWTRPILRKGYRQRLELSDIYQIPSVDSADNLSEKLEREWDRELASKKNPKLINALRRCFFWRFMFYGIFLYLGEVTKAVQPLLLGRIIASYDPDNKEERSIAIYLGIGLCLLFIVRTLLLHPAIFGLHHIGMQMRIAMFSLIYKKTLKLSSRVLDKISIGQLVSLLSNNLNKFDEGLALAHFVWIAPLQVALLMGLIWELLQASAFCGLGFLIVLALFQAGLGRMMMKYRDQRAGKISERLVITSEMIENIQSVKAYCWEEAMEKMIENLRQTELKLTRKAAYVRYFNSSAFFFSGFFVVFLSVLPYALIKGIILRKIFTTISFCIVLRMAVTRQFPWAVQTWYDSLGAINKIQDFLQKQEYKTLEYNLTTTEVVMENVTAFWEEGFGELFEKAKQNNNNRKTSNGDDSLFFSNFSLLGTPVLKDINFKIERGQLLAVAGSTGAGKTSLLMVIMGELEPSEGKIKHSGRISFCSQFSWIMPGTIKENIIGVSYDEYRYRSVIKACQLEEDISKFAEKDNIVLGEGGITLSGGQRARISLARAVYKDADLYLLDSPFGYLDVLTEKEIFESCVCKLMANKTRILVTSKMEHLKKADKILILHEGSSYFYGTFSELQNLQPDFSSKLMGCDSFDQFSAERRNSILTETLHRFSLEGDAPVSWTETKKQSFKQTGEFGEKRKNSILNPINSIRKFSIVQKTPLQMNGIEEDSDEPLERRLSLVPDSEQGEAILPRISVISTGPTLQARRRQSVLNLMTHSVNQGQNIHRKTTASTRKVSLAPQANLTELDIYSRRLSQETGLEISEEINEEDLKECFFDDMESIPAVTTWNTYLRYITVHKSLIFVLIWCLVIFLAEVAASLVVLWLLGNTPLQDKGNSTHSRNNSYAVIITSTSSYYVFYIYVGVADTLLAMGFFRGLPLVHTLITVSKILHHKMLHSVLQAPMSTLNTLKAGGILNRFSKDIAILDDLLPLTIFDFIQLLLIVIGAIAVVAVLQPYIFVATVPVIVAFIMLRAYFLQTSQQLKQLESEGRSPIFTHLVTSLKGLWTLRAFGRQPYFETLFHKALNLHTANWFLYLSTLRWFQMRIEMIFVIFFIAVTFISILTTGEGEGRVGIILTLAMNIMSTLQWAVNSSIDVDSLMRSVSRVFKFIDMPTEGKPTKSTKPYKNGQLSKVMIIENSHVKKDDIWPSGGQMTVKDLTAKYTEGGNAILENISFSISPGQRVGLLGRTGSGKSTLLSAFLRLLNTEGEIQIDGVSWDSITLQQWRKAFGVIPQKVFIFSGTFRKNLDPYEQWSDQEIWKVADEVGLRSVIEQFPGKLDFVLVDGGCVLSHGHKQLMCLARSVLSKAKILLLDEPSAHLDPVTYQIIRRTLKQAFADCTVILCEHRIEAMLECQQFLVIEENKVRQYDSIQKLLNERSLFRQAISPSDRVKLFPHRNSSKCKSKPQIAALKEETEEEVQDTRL

| SMILES | TECC (AUC, 10 μM) [1] | DSLS 3D (100 μM ΔT) [2] |
| --- | --- | --- |
| CCOC(=O)CCc1cccc(C2CCS(=O)(=O)CCS(=O)(=O)CCc3c(c(F)cc4[nH]ccc34)Oc3ccc(F)c(c3)-c3ccn2n3)c1 (stereo not shown) [Compound 92, Ethyl 3-[3-(22,28-difluoro-9,9,12,12-tetraoxo-24-oxa-9lambda6,12lambda6-dithia-5,19,30-triazapentacyclo[23.3.1.12,5.015,23.016,20]triaconta-1(29),2(30),3,15,17,20,22,25,27-nonaen-6-yl)phenyl]propanoate] | A (a TECC value less than 12 is marked “A”) | A (an ΔTagg value less than or equal to 5 °C is marked “A”) |
| Cn1nc2nc1-c1cc(ccc1F)Oc1c(F)cc3[nH]ccc3c1Cc1ccnn1CCS(=O)(=O)CCC2(C)c1cccc(CCC(=O)O)c1 (stereo not shown) [Compound 99, 3-[3-(25,31-Difluoro-3,6-dimethyl-9,9-dioxo-27-oxa-9λ6-thia-3,4,12,13,22,33-hexazahexacyclo[26.3.1.12,5.012,16.018,26.019,23]tritriaconta-1(32),2(33),4,13,15,18,20,23,25,28,30-undecaen-6-yl)phenyl]propanoic Acid] | A (a TECC value less than 12 is marked “A”) | A (an ΔTagg value less than or equal to 5 °C is marked “A”) |
| Cn1nc2nc1-c1cc(ccc1F)Oc1c(F)cc3[nH]ccc3c1CCS(=O)(=O)CC(C)(C)CCCC2(CO)c1cccc(CCC(=O)O)c1 (stereo not shown) [Compound 103, 3-[3-[22,28-Difluoro-6-(hydroxymethyl)-3,10,10-trimethyl-12,12-dioxo-24-oxa-12lambda6-thia-3,4,19,30-tetrazapentacyclo[23.3.1.12,5.015,23.016,20]triaconta-1(29),2(30),4,15,17,20,22,25,27-nonaen-6-yl]phenyl]propanoic Acid] | A (a TECC value less than 12 is marked “A”) | C (a value greater than 10 °C and less than or equal to 25 °C is marked “C”) |
| Cn1nc2nc1-c1cc(ccc1F)Oc1c(F)cc3[nH]ccc3c1CCS(=O)(=O)CC(C)(C)CCCC2(C#N)c1cccc(CCC(=O)O)c1 (stereo not shown) [Compound 104, 3-[3-(6-Cyano-22,28-difluoro-3,10,10-trimethyl-12,12-dioxo-24-oxa-12lambda6-thia-3,4,19,30-tetrazapentacyclo[23.3.1.12,5.015,23.016,20]triaconta-1(29),2(30),4,15,17,20,22,25,27-nonaen-6-yl)phenyl]propanoic Acid] | C (a value between 20 and 80 is marked “C”) | C (a value greater than 10 °C and less than or equal to 25 °C is marked “C”) |
| Cn1nc2nc1-c1cc(ccc1F)Oc1c(F)cc3[nH]ccc3c1CCS(=O)(=O)CC(C)(C)CCCC2(CF)c1cccc(CCC(=O)O)c1 (stereo not shown) [Compound 105, 3-[3-[22,28-Difluoro-6-(fluoromethyl)-3,10,10-trimethyl-12,12-dioxo-24-oxa-12lambda6-thia-3,4,19,30-tetrazapentacyclo-[23.3.1.12,5.015,23.016,20]triaconta-1(29),2(30),4,15,17,20,22,25,27-nonaen-6-yl]phenyl]propanoic acid] | A (a TECC value less than 12 is marked “A”) | B (a value above 5 °C and less than or equal to 10 °C is marked “B”) |
| Cn1nc2nc1-c1cc(ccc1F)Oc1c(F)cc3[nH]ccc3c1CCS(=O)(=O)CC(C)(C)C(F)(F)CCC2(C)c1cccc(CCC(=O)O)c1 (stereo not shown) [Compound 106, 3-[3-(9,9,22,28-Tetrafluoro-3,6,10,10-tetramethyl-12,12-dioxo-24-oxa-12lambda6-thia-3,4,19,30-tetrazapentacyclo[23.3.1.12,5.015,23.016,20]triaconta-1(29),2(30),4,15,17,20,22,25,27-nonaen-6-yl)phenyl]propanoic Acid] | A (a TECC value less than 12 is marked “A”) | C (a value greater than 10 °C and less than or equal to 25 °C is marked “C”) |
| Cn1nc2nc1-c1cc(ccc1F)Oc1c(F)cc3[nH]ccc3c1CCS(=O)(=O)CC(C)(C)/C(F)=C/CC2(C)c1cccc(CCC(=O)O)c1 (stereo not shown) [Compound 107, 3-[3-[(8Z)-9,22,28-Trifluoro-3,6,10,10-tetramethyl-12,12-dioxo-24-oxa-12lambda6-thia-3,4,19,30-tetrazapentacyclo-[23.3.1.12,5.015,23.016,20]triaconta-1(29),2(30),4,8,15,17,20,22,25,27-decaen-6-yl]phenyl]propanoic acid] | A (a TECC value less than 12 is marked “A”) | C (a value greater than 10 °C and less than or equal to 25 °C is marked “C”) |
| CC(Cc1cccc(C2(C)CCS(=O)(=O)CC(C)(C)c3cnn(c3)Cc3c(c(F)cc4[nH]ccc34)Oc3ccc(F)c(c3)-c3nc2nn3C)c1)C(=O)O (stereo not shown) [Compound 110, 3-[3-(24,30-Difluoro-3,6,11,11-tetramethyl-9,9-dioxo-26-oxa-9lambda6-thia-3,4,14,15,21,33-hexazahexacyclo-[25.3.1.12,5.112,15.017,25.018,22]tritriaconta-1(31),2(33),4,12(32),13,17,19,22,24,27,29-undecaen-6-yl)phenyl]-2-methyl-propanoic Acid] | C (a value between 20 and 80 is marked “C”) | B (a value above 5 °C and less than or equal to 10 °C is marked “B”) |
| Cn1nc2nc1-c1cc(ccc1F)Oc1c(F)cc3[nH]ccc3c1Cn1cc(cn1)C(C)(C)S(=O)(=O)CCCC2(C)c1cccc(CCC(=O)O)c1 (stereo not shown) [Compound 111, 3-[3-(24,30-Difluoro-3,6,11,11-tetramethyl-10,10-dioxo-26-oxa-10λ6-thia-3,4,14,15,21,33-hexazahexacyclo[25.3.1.12,5.112,15.017,25.018,22]-tritriaconta-1(31),2(33),4,12(32),13,17,19,22,24,27,29-undecaen-6-yl)phenyl]propanoic Acid] | B (a value between 12-20 is marked “B”) | C (a value greater than 10 °C and less than or equal to 25 °C is marked “C”) |
| CC(Cc1cccc(C2(C)CCS(=O)(=O)CCS(=O)(=O)CCc3c(c(F)cc4[nH]ccc34)Oc3ccc(F)c(c3)-c3nc2nn3C)c1)C(=O)O (stereo not shown) [Compound 112, 3-[3-(22,28-Difluoro-3,6-dimethyl-9,9,12,12-tetraoxo-24-oxa-9lambda6,12lambda6-dithia-3,4,19,30-tetrazapentacyclo[23.3.1.12,5.015,23.016,20]triaconta-1(29),2(30),4,15,17,20,22,25,27-nonaen-6-yl)phenyl]-2-methyl-propanoic Acid] | A (a TECC value less than 12 is marked “A”) | B (a value above 5 °C and less than or equal to 10 °C is marked “B”) |
| CC(Cc1cccc(C2CCCC(C)(C)CS(=O)(=O)CCc3c(c(F)cc4[nH]ccc34)Oc3ccc(F)c(c3)-c3nc2nn3C)c1)C(=O)O (stereo not shown) [Compound 114, 3-[3-(22,28-Difluoro-3,10,10-trimethyl-12,12-dioxo-24-oxa-12λ6-thia-3,4,19,30-tetrazapentacyclo[23.3.1.12,5.015,23.016,20]triaconta-1(29),2(30),4,15,17,20,22,25,27-nonaen-6-yl)phenyl]-2-methyl-propanoic Acid] | B (a value between 12-20 is marked “B”) | C (a value greater than 10 °C and less than or equal to 25 °C is marked “C”) |
| CC(Cc1cccc(C2(C3SCCS3)CCCC(C)(C)CS(=O)(=O)CCc3c(c(F)cc4[nH]ccc34)Oc3ccc(F)c(c3)-c3nc2nn3C)c1)C(=O)O (stereo not shown) [Compound 115, 3-[3-[6-(1,3-Dithiolan-2-yl)-22,28-difluoro-3,10,10-trimethyl-12,12-dioxo-24-oxa-12λ6-thia-3,4,19,30-tetrazapentacyclo-[23.3.1.12,5.015,23.016,20]triaconta-1(29),2(30),4,15,17,20,22,25,27-nonaen-6-yl]phenyl]-2-methyl-propanoic Acid] | A (a TECC value less than 12 is marked “A”) | C (a value greater than 10 °C and less than or equal to 25 °C is marked “C”) |
| Cn1nc2nc1-c1cc(ccc1F)Oc1c(F)cc3[nH]cnc3c1CCS(=O)(=O)CC(C)(C)CCCC2(C)c1cccc(CCC(=O)O)c1 (stereo not shown) [Compound 116, 3-[3-(22,28-Difluoro-3,6,10,10-tetramethyl-12,12-dioxo-24-oxa-12λ6-thia-3,4,17,19,30-pentazapentacyclo[23.3.1.12,5.015,23.016,20]triaconta-1(29),2(30),4,15,17,20,22,25,27-nonaen-6-yl)phenyl]propanoic Acid] | A (a TECC value less than 12 is marked “A”) | C (a value greater than 10 °C and less than or equal to 25 °C is marked “C”) |
| CC(Cc1cccc(C2(C)CCCC(C)(C)CS(=O)(=O)CCc3c(c(F)cc4[nH]ccc34)Oc3cccc(c3)-c3nc2cn3C)c1)C(=O)O (stereo not shown) [Compound 117, 3-[3-(22-Fluoro-3,6,10,10-tetramethyl-12,12-dioxo-24-oxa-12λ6-thia-3,19,30-triazapentacyclo[23.3.1.12,5.015,23.016,20]triaconta-1(29),2(30),4,15,17,20,22,25,27-nonaen-6-yl)phenyl]-2-methyl-propanoic Acid] | C (a value between 20 and 80 is marked “C”) | C (a value greater than 10 °C and less than or equal to 25 °C is marked “C”) |
